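Each compound was tested at five concentrations against cells in 96-well plates for 48 hours. Abbreviation: GI50, concentration required for 50% inhibition of growth.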 Active and inactive are the calls of the source. Cut-off read from the data, not from the text of the source: active = GI50 up to about 1.1 µM and inactive = higher.
Experiments:
Assay in all cases: NCI anticancer screen, dose series, 48 h
[1] = test system: SF-295
[2] = test system: SNB-19
[3] = test system: NCI/ADR-RES
[4] = test system: UACC-257
[5] = test system: RPMI-8226
[6] = test system: SNB-75
[7] = test system: HCC 2998
[8] = test system: SW-620
[9] = test system: M14
[10] = test system: KM12
[11] = test system: NCI-H23
[12] = test system: MDA-N
[13] = test system: UACC-62
[14] = test system: MCF7
[15] = test system: MDA-MB-435
[16] = test system: MOLT-4
[17] = test system: OVCAR-8
[18] = test system: RXF 393
[19] = test system: U-251
[20] = test system: SF-539
[21] = test system: HL-60
[22] = test system: MDA-MB-231
[23] = test system: ACHN
[24] = test system: SK-MEL-28
[25] = test system: T47D
[26] = test system: Hs-578T
[27] = test system: HOP-62
[28] = test system: PC-3
[29] = test system: SK-MEL-5
[30] = test system: SK-OV-3
[31] = test system: HCT-15
[32] = test system: SR
[33] = test system: OVCAR-4
[34] = test system: NCI-H460
[35] = test system: K562
[36] = test system: OVCAR-3
[37] = test system: HOP-92
[38] = test system: A549
[39] = test system: A498
[40] = test system: HT-29
[41] = test system: LOX IMVI
[42] = test system: UO-31
[43] = test system: OVCAR-5
[44] = test system: NCI-H226
[45] = test system: DU-145
[46] = test system: TK-10
[47] = test system: CAKI-1
[48] = test system: CCRF-CEM
[49] = test system: SK-MEL-2
[50] = test system: COLO 205
[51] = test system: 786-0
[52] = test system: SF-268
[53] = test system: IGROV-1
[54] = test system: EKVX
[55] = test system: HCT-116
[56] = test system: SN12C
[57] = test system: NCI-H522
[58] = test system: Malme-3M

CCOC(=O)c1csc(NC(=O)CCN2CCN(C)CC2)n1
GI50 [1]: > 100 µM (inactive)
GI50 [2]: > 100 µM (inactive)
GI50 [3]: > 100 µM (inactive)
GI50 [4]: > 100 µM (inactive)
GI50 [5]: 55.3 µM (inactive)
GI50 [6]: > 100 µM (inactive)
GI50 [7]: > 100 µM (inactive)
GI50 [8]: 43.2 µM (inactive)
GI50 [9]: > 100 µM (inactive)
GI50 [10]: > 100 µM (inactive)
GI50 [11]: > 100 µM (inactive)
GI50 [12]: > 100 µM (inactive)
GI50 [13]: > 100 µM (inactive)
GI50 [14]: 89.3 µM (inactive)
GI50 [15]: > 100 µM (inactive)
GI50 [16]: 65.5 µM (inactive)
GI50 [17]: > 100 µM (inactive)
GI50 [18]: > 100 µM (inactive)
GI50 [19]: > 100 µM (inactive)
GI50 [20]: > 100 µM (inactive)
GI50 [21]: 75.5 µM (inactive)
GI50 [22]: > 100 µM (inactive)
GI50 [23]: > 100 µM (inactive)
GI50 [24]: > 100 µM (inactive)
GI50 [25]: > 100 µM (inactive)
GI50 [26]: 64.6 µM (inactive)
GI50 [27]: > 100 µM (inactive)
GI50 [28]: > 100 µM (inactive)
GI50 [29]: > 100 µM (inactive)
GI50 [30]: > 100 µM (inactive)
GI50 [31]: > 100 µM
GI50 [32]: 74.3 µM (inactive)
GI50 [33]: > 100 µM (inactive)
GI50 [34]: > 100 µM (inactive)
GI50 [35]: 69.8 µM (inactive)
GI50 [36]: > 100 µM (inactive)
GI50 [37]: > 100 µM (inactive)
GI50 [38]: > 100 µM (inactive)
GI50 [39]: > 100 µM (inactive)
GI50 [40]: 62.1 µM (inactive)
GI50 [41]: > 100 µM (inactive)
GI50 [42]: > 100 µM (inactive)
GI50 [43]: > 100 µM (inactive)
GI50 [44]: > 100 µM (inactive)
GI50 [45]: > 100 µM (inactive)
GI50 [46]: > 100 µM (inactive)
GI50 [47]: 64.1 µM (inactive)
GI50 [48]: 54.8 µM (inactive)
GI50 [49]: > 100 µM (inactive)
GI50 [50]: > 100 µM (inactive)

O=C1/C(=C/c2cccs2)NC(=S)N1CN1CCOCC1
GI50 [1]: > 100 µM (inactive)
GI50 [2]: > 100 µM (inactive)
GI50 [51]: > 100 µM (inactive)
GI50 [3]: > 100 µM (inactive)
GI50 [4]: 29 µM (inactive)
GI50 [5]: > 100 µM (inactive)
GI50 [6]: > 100 µM (inactive)
GI50 [8]: > 100 µM (inactive)
GI50 [9]: > 100 µM (inactive)
GI50 [10]: > 100 µM (inactive)
GI50 [11]: > 100 µM (inactive)
GI50 [12]: > 100 µM (inactive)
GI50 [13]: > 100 µM (inactive)
GI50 [14]: > 100 µM (inactive)
GI50 [15]: > 100 µM (inactive)
GI50 [16]: > 100 µM (inactive)
GI50 [17]: > 100 µM (inactive)
GI50 [19]: > 100 µM (inactive)
GI50 [22]: > 100 µM (inactive)
GI50 [23]: > 100 µM (inactive)
GI50 [24]: > 100 µM (inactive)
GI50 [26]: > 100 µM (inactive)
GI50 [27]: > 100 µM (inactive)
GI50 [28]: > 100 µM (inactive)
GI50 [29]: > 100 µM (inactive)
GI50 [30]: > 100 µM (inactive)
GI50 [31]: > 100 µM
GI50 [32]: > 100 µM (inactive)
GI50 [52]: > 100 µM (inactive)
GI50 [53]: > 100 µM (inactive)
GI50 [54]: > 100 µM (inactive)
GI50 [35]: > 100 µM (inactive)
GI50 [36]: > 100 µM (inactive)
GI50 [37]: > 100 µM (inactive)
GI50 [38]: > 100 µM (inactive)
GI50 [55]: > 100 µM (inactive)
GI50 [39]: 42.9 µM (inactive)
GI50 [40]: > 100 µM (inactive)
GI50 [41]: > 100 µM (inactive)
GI50 [42]: > 100 µM (inactive)
GI50 [43]: > 100 µM (inactive)
GI50 [44]: > 100 µM (inactive)
GI50 [45]: > 100 µM (inactive)
GI50 [46]: 34.1 µM (inactive)
GI50 [48]: > 100 µM (inactive)
GI50 [56]: > 100 µM (inactive)
GI50 [49]: > 100 µM (inactive)
GI50 [50]: > 100 µM (inactive)

Cc1cn(C2C=CC(COP(=O)(OCC3=CC(=O)c4ccccc4C3=O)N(C)CCCCCl)O2)c(=O)[nH]c1=O (centres undefined)
GI50 [57]: 14.7 µM (inactive)
GI50 [1]: 2.59 µM (inactive)
GI50 [2]: 12 µM (inactive)
GI50 [51]: 12.7 µM (inactive)
GI50 [3]: 16.4 µM (inactive)
GI50 [4]: 3.25 µM (inactive)
GI50 [5]: 5.05 µM (inactive)
GI50 [6]: 1.55 µM (inactive)
GI50 [7]: 1.24 µM (inactive)
GI50 [8]: 5.13 µM (inactive)
GI50 [9]: 1.18 µM (inactive)
GI50 [10]: 10.6 µM (inactive)
GI50 [11]: 2.39 µM (inactive)
GI50 [12]: 2.21 µM (inactive)
GI50 [13]: 3.75 µM (inactive)
GI50 [14]: 6.98 µM (inactive)
GI50 [15]: 1.94 µM (inactive)
GI50 [16]: 0.15 µM (active)
GI50 [17]: 13.7 µM (inactive)
GI50 [18]: 2.5 µM (inactive)
GI50 [19]: 5.38 µM (inactive)
GI50 [20]: 13.1 µM (inactive)
GI50 [21]: 1.42 µM (inactive)
GI50 [22]: 12.6 µM (inactive)
GI50 [23]: 13.6 µM (inactive)
GI50 [24]: 5.15 µM (inactive)
GI50 [25]: 2.09 µM (inactive)
GI50 [26]: 3.9 µM (inactive)
GI50 [58]: 0.363 µM (active)
GI50 [27]: 11.7 µM (inactive)
GI50 [28]: 12.1 µM (inactive)
GI50 [29]: 0.813 µM (active)
GI50 [30]: 11 µM (inactive)
GI50 [31]: 8.51 µM
GI50 [32]: 0.0473 µM (active)
GI50 [52]: 12.1 µM (inactive)
GI50 [53]: 10.6 µM (inactive)
GI50 [33]: 11.1 µM (inactive)
GI50 [34]: 2.49 µM (inactive)
GI50 [35]: 5.81 µM (inactive)
GI50 [36]: 3.5 µM (inactive)
GI50 [37]: 0.074 µM (active)
GI50 [38]: 1.6 µM (inactive)
GI50 [55]: 14 µM (inactive)
GI50 [40]: 12.7 µM (inactive)
GI50 [41]: 2.38 µM (inactive)
GI50 [42]: 12.8 µM (inactive)
GI50 [43]: 12.1 µM (inactive)
GI50 [44]: 10.3 µM (inactive)
GI50 [45]: 1.57 µM (inactive)
GI50 [46]: 20.7 µM (inactive)
GI50 [47]: 13.2 µM (inactive)
GI50 [48]: 3.12 µM (inactive)
GI50 [56]: 11.6 µM (inactive)
GI50 [49]: 13.2 µM (inactive)
GI50 [50]: 3.23 µM (inactive)
